Measured values as given in ChEMBL document CHEMBL3046675, “Synthesis and Octopaminergic-Agonist Activity of 2-(Arylimino)oxazolidines and 2-(Substituted Benzylamino)-2-oxazolines” (J Pestic Sci, 1996).

T1: Octopamine receptor (Periplaneta americana) (UniProt Q7YWB7)
T1 sequence (whole entry): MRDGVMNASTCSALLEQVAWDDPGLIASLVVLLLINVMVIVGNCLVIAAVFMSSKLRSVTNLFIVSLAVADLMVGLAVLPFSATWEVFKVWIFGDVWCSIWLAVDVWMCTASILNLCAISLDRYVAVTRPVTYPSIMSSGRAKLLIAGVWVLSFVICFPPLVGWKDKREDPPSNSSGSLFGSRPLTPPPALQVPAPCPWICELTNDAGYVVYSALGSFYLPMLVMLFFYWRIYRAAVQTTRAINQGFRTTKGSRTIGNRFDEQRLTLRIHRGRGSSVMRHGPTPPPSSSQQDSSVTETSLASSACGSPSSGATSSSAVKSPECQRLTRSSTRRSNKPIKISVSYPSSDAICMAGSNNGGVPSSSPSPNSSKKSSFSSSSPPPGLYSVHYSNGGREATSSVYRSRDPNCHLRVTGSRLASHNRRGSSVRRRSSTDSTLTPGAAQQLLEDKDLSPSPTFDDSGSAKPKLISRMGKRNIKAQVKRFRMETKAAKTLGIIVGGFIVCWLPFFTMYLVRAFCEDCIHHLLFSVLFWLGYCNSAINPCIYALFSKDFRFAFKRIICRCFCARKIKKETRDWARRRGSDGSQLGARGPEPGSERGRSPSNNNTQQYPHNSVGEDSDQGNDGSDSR

B1: Octopamine receptor (Periplaneta americana), Q7YWB7 (protein)
chain: T1 sequence (whole entry)

Tests used:
[1] = target: T1, Octopamine receptor (Periplaneta americana); assay: Agonist activity at Periplaneta americana (American cockroach) thoracic nerve cord octopaminergic receptor assessed as induction of adenylate cyclase-mediated cAMP production per mg protein at 100 uM by radioimmunoassay relative to octopamine
[2] = target: T1, Octopamine receptor (Periplaneta americana); assay: Agonist activity at Periplaneta americana (American cockroach) thoracic nerve cord octopaminergic receptor assessed as induction of adenylate cyclase-mediated cAMP production per mg protein at 100 uM by radioimmunoassay
[3] = target: T1, Octopamine receptor (Periplaneta americana); assay: Agonist activity at Periplaneta americana (American cockroach) thoracic nerve cord octopaminergic receptor assessed as induction of adenylate cyclase-mediated cAMP production per mg protein at 10 uM by radioimmunoassay
[4] = target: T1, Octopamine receptor (Periplaneta americana); assay: Agonist activity at Periplaneta americana (American cockroach) thoracic nerve cord octopaminergic receptor assessed as induction of adenylate cyclase-mediated cAMP production per mg protein by radioimmunoassay
[5] = target: T1, Octopamine receptor (Periplaneta americana); assay: Agonist activity at Periplaneta americana (American cockroach) thoracic nerve cord octopaminergic receptor assessed as induction of adenylate cyclase-mediated cAMP production per mg protein at 10 uM by radioimmunoassay relative to octopamine
[6] = substrate: CCc1cccc(CC)c1/N=C1/NCCO1; assay: (§1) Agonist activity at Periplaneta americana (American cockroach) thoracic nerve cord octopaminergic receptor assessed as induction of adenylate cyclase-mediated cAMP production per mg protein by radioimmunoassay relative to octopamine
[7] = substrate: Clc1ccc(CNC2=NCCS2)cc1Cl; assay: as §1
[8] = substrate: Clc1ccc(CNC2=NCCO2)cc1Cl; assay: as §1

| Molecule | max activation [1] [%] | Activity [2] [pmol/min] | further results |
| --- | --- | --- | --- |
| Cc1ccc(CNC2=NCCO2)cc1 | 35.2 | 293 |  |
| Clc1cccc(CNC2=NCCO2)c1 |  |  | Activity [3]: 252 pmol/min; Ka [4]: 0.16 µM; Activity [5]: 27.2% |
| FC(F)(F)c1ccc(C(F)(F)F)c(/N=C2/NCCO2)c1 | -4.2 | 88.3 |  |
| Clc1ccc(/N=C2/NCCO2)c(Cl)c1Cl | 15.1 | 189 |  |
| NCC(O)c1ccc(O)cc1 (stereo not given) |  | 630 | Ka [4]: 7.6 µM |
| CCc1cccc(CC)c1/N=C1/NCCO1 | 49 | 365 | Ka [4]: 0.44 µM |
| COc1ccccc1CNC1=NCCO1 | 6.9 | 146 |  |
| CCc1cccc(CC)c1NC1=NCCN1 |  |  | Ka [4]: 0.44 µM |
| CCc1ccc(/N=C2/NCCO2)cc1 | 11.5 | 170 | Ka [4]: 36 µM |
| Brc1cc(Br)c(/N=C2/NCCO2)c(Br)c1 | -4.4 | 87.4 |  |
| Cc1cc(Cl)ccc1/N=C1/NCCO1 | 17.9 | 204 | Ka [4]: 0.18 µM |
| Cc1cc(Br)ccc1/N=C1/NCCO1 | 19.9 | 214 | Ka [4]: 0.19 µM |
| Fc1ccccc1CNC1=NCCO1 | 14.2 | 184 |  |
| Clc1ccc(CNC2=NCCO2)c(Cl)c1 | 11.8 | 172 |  |
| Fc1ccc(F)c(/N=C2/NCCO2)c1 | -7.7 | 70.3 |  |
| Clc1ccccc1CNC1=NCCO1 | 17.4 | 200 |  |
| Cc1cccc(CNC2=NCCO2)c1 | 9.2 | 158 |  |
| Clc1ccc(CNC2=NCCO2)cc1 | 31.7 | 275 |  |
| Brc1ccccc1CNC1=NCCO1 | 10.4 | 164 |  |
| COc1cccc(CNC2=NCCO2)c1 | -3.6 | 91.5 |  |

| Molecule | max activation [1] [%] | Activity [2] [pmol/min] | further results |
| --- | --- | --- | --- |
| COc1cccc(CNC2=NCCO2)c1OC | 8.9 | 157 |  |
| Clc1ccc(CNC2=NCCS2)cc1Cl |  |  | Ka [4]: 0.4 µM |
| Fc1ccc(CNC2=NCCO2)cc1 | 11.2 | 168 |  |
| COc1ccc(CNC2=NCCO2)cc1 | 17 | 199 |  |
| FC(F)(F)c1cccc(CNC2=NCCO2)c1 | 17.2 | 200 |  |
| Fc1ccc(F)c(CNC2=NCCO2)c1 | 19.3 | 211 |  |
| O=[N+]([O-])c1cccc(CNC2=NCCO2)c1 | 18.4 | 206 |  |
| Clc1ccc(CNC2=NCCO2)cc1Cl | 13.5 | 180 | Ka [4]: 2.3 µM |
| COc1ccc(CNC2=NCCO2)c(OC)c1 | 9.8 | 161 |  |
| Clc1cccc(/N=C2/NCCO2)c1 | 0.2 | 111 |  |
| COc1cc(/N=C2/NCCO2)cc(OC)c1OC | -9.4 | 61.2 |  |
| FC(F)(F)c1ccc(CNC2=NCCO2)cc1 | 7 | 147 |  |
| CCc1ccccc1/N=C1/NCCO1 | -5 | 84.1 |  |
| Fc1cc(F)c(/N=C2/NCCO2)c(F)c1 | 2.5 | 123 |  |
| Clc1cc(Br)ccc1/N=C1/NCCO1 | -8.4 | 66.4 |  |
| FC(F)(F)c1ccccc1CNC1=NCCO1 | 5.1 | 137 |  |
| Clc1cccc(/N=C2/NCCO2)c1Cl | 2 | 121 |  |
| FC(F)(F)c1ccc(/N=C2/NCCO2)cc1 | 6.6 | 145 |  |
| Fc1cccc(F)c1/N=C1/NCCO1 | -0.3 | 109 |  |
| B1 |  |  | Vmax [6]: 58%; Vmax [7]: 53%; Vmax [8]: 29% |
